Consider 26 compounds from patent publication US11161839B2, “2-quinolone derived inhibitors of BCL6” (Cancer Research Technology Limited, priority 2017, dated 2021).

In test [1] the target is human BCL6 BTB domain (Trx-6xHis-BCL6) (Homo sapiens (Human), UniProt P41182). Kind of test: HTRF in vitro assay (BCL6 BTB domain / BCOR-AF633 peptide). In kind it is binding. To be noted: for IC50: read-out: HTRF pIC50 (converted). Background: Time-resolved FRET reads energy transfer from a long-lived donor to a nearby acceptor.
Protocol: The % inhibition at each concentration was calculated by normalising FRET ratio to the appropriate high (DMSO with all reagents) and low (DMSO without BCL6) controls.
The target in test [2] is BCL6-NCOR2(SMRT) corepressor protein-protein interaction (Homo sapiens (Human), UniProt P41182). Kind of test: NanoBRET cell assay in transfected HEK293T cells. In kind it is cell-based. The note with it: further generated data (Table 2b); HEK293T cells, 6 hr; read-out: NanoBRET cell pIC50 (converted). Background: Bioluminescence resonance energy transfer reports proximity on the nanometre scale.
Description: A cellular nano-Bioluminescence Resonance Energy Transfer (nanoBRET) assay (Promega NanoBRET Nano-Glo Detection System, catalogue number N1662) was used to detect inhibition of the BCL6-NCOR2(SMRT) corepressor protein-protein interaction. DNA encoding full length BCL6 and NCOR2 were inserted into pFC32K.NanoLuc and pFC14K.HaloTag vectors (Promega) to produce C-terminal tagged fusion proteins BCL6-nanoLuc and NCOR2-HaloTag, respectively. […] Frozen transfected HEK293T cells were thawed, centrifuged and freezing medium was replaced by phenol red-free OptiMEM+4% FBS (Life Technology). […] Cells were incubated for 6 hr at 37° C./5% CO2 then NanoBRET furimazine substrate (Promega) was added to give a final concentration of 10 μM. After a short centrifugation the plates were read on an Envision (Perkin Elmer) plate reader equipped with a LUM/D600 Dual mirror, Lum 450/40 nm bandpass and D605 nm longpass filters, with a 0.2 sec reading to determine the BRET ratio. The % inhibition at each test concentration was calculated by normalising the BRET ratio to the appropriate high and low controls.

Setting [3] is: further generated data (Table 1b), 1 nM Trx-6xHis-BCL6, 0.5 nM anti-6xHis-Terbium cryptate.
The mark [4] stands for this setting: initially generated data (Table 1a), 10 nM Trx-6xHis-BCL6, 1 nM anti-6xHis-Terbium cryptate.

Take `CC(Nc1cc(=O)n(C)c2ccc(Nc3ccnc(Cl)c3C#N)cc12)c1ncc(C2CCC2)cn1` (stereo not shown) [Example 24f, 2-chloro-4-((4-((1-(5-cyclobutylpyrimidin-2-yl)ethyl)amino)-1-methyl-2-oxo-1,2-dihydroquinolin-6-yl)amino)nicotinonitrile]: in test [1] (setting [3]), the “HTRF pIC50” value was 7.26. In test [2], the IC50 is 1620 nM.

`CC(Nc1cc(=O)n(CC2CCC2)c2ccc(Nc3ccnc(Cl)c3C#N)cc12)c1ncccn1` (stereo not shown) [Example 11i, 2-chloro-4((1-(cyclobutylmethyl)-2-oxo-4-((1-(pyrimidin-2-yl)ethyl)amino)-1,2-dihydroquinolin-6-yl)amino)nicotinonitrile]: the “HTRF pIC50” value in test [1] (setting [3]) is 6.64. Further, in test [2], the IC50 is 2090 nM.

Turning to `CC(Nc1cc(=O)n(CCO)c2ccc(Nc3ccnc(Cl)c3C#N)cc12)c1ncccn1` (stereo not shown) [Example 11j, 2-chloro-4-((1-(2-hydroxyethyl)-2-oxo-4-((1-(pyrimidin-2-yl)ethyl)amino)-1,2-dihydroquinolin-6-yl)amino)nicotinonitrile], the “HTRF pIC50” value in test [1] (setting [3]) is 6.83. Also, the IC50 in test [2] is 11000 nM.

Take `COCCC1CCCN1C(=O)c1cc(Nc2ccc3c(c2)c(N[C@H](C)C2CC2)cc(=O)n3C)c(Cl)cn1` (stereo partly shown) [Example 15b]: the “HTRF pIC50” value in test [1] (setting [3]) turned out to be 6.46. For the same compound, in test [2], the IC50 is 2190 nM.

As to `Cc1cc(C)n(-c2ncc(Cl)c(Nc3ccc4c(c3)c(NC(C)c3ncn(C)n3)cc(=O)n4C)n2)n1` (stereo not shown) [Example 14b, 6-((5-chloro-2-(3,5-dimethyl-1H-pyrazol-1-yl)pyrimidin-4-yl)amino)-1-methyl-4-((1-(1-methyl-1H-1,2,4-triazol-3-yl)ethyl)amino)quinolin-2(1H)-one], the “HTRF pIC50” value in test [1] (setting [3]) is listed as 6.64. Also, in test [2], the IC50 was 8320 nM.

In the case of `Cc1cc(C(C)Nc2cc(=O)n(C)c3ccc(Nc4ccnc(Cl)c4C#N)cc23)no1` (stereo not shown) [Example 1m, 2-chloro-4-[[1-methyl-4-[1-(5-methylisoxazol-3-yl)ethylamino]-2-oxo-6-quinolyl]amino]pyridine-3-carbonitrile], the “HTRF pIC50” value in test [1] (setting [3]) was 5.88; in test [1] (setting [4]), 6.15. Also, in test [2], the IC50 is 5370 nM.

For `Cn1c(=O)cc(NC(C)(C)c2ncc(C3CC3)cn2)c2cc(Nc3ccnc(Cl)c3C#N)ccc21` [Example 10a, 2-chloro-4-((4-((2-(5-cyclopropylpyrimidin-2-yl)propan-2-yl)amino)-1-methyl-2-oxo-1,2-dihydroquinolin-6-yl)amino)nicotinonitrile], the “HTRF pIC50” value in test [1] (setting [3]) came out at 7.53. For the same compound, the IC50 in test [2] was 513 nM.

For `Cn1c(=O)cc(NC(C)(C)c2ncccn2)c2cc(Nc3cc(C(=O)N4CCC4)nc(Cl)c3C#N)ccc21` [Example 8a, 6-(Azetidine-1-carbonyl)-2-chloro-4-((1-methyl-2-oxo-4-((2-(pyrimidin-2-yl)propan-2-yl)amino)-1,2-dihydroquinolin-6-yl)amino)nicotinonitrile], the “HTRF pIC50” value in test [1] (setting [3]) is reported as 7.78. Besides, the IC50 in test [2] was 550 nM.

For the compound `COC[C@@H]1CCCN1C(=O)c1cc(Nc2ccc3c(c2)c(NC(C)(C)c2ncccn2)cc(=O)n3C)c(C#N)c(Cl)n1` [Example 8e], the IC50 in test [1] (setting [3]) is 28.2 nM; in test [2], 676 nM.

On to `CC(Nc1cc(=O)n(C)c2ccc(Nc3ccnc(Cl)c3C#N)cc12)c1ncc(N2C[C@H](C)C[C@H](C)C2)cn1` (stereo partly drawn) [Example 10k, 2-chloro-4-((4-((1-(5-((3R,5S)-3,5-dimethylpiperidin-1-yl)pyrimidin-2-yl)ethyl)amino)-1-methyl-2-oxo-1,2-dihydroquinolin-6-yl)amino)nicotinonitrile], for which, in test [1] (setting [3]), the “HTRF pIC50” value was 6.82. The IC50 in test [2] is 1510 nM.

As for `Cc1cc(Nc2ccc3c(c2)c(NC(C)c2ncccn2)cc(=O)n3C)c(C#N)c(Cl)n1` (stereo not shown) [Example 1w, 2-chloro-6-methyl-4-[[1-methyl-2-oxo-4-(1-pyrimidin-2-ylethylamino)-6-quinolyl]amino]pyridine-3-carbonitrile], the “HTRF pIC50” value in test [1] (setting [3]) is 6.90; in test [1] (setting [4]), 6.29. Moreover, the IC50 in test [2] is 1580 nM.

With `CNC(=O)c1cc(Nc2ccc3c(c2)c(NC(C)(C)COC)cc(=O)n3C)c(C#N)c(Cl)n1` [Example 7d, 6-chloro-5-cyano-4-[[4-[(2-methoxy-1,1-dimethyl-ethyl)amino]-1-methyl-2-oxo-6-quinolyl]amino]-N-methyl-pyridine-2-carboxamide], the “HTRF pIC50” value in test [1] (setting [3]) worked out at 6.85. Besides, the IC50 in test [2] is 977 nM.

As for `Cn1c(=O)cc(NC(c2ncccn2)C2CC2)c2cc(Nc3ccnc(Cl)c3C#N)ccc21` (stereo not shown) [Example 10p, 2-chloro-4-((4-((cyclopropyl(pyrimidin-2-yl)methyl)amino)-1-methyl-2-oxo-1,2-dihydroquinolin-6-yl)amino)nicotinonitrile], in test [1] (setting [3]), the “HTRF pIC50” value was 6.44. Further, in test [2], the IC50 is 2340 nM.

`C[C@@H](Nc1cc(=O)n(C)c2ccc(Nc3cc(C(=O)N4CCC4)ncc3Cl)cc12)C1CC1` [Example 15d, (R)-6-((2-(azetidine-1-carbonyl)-5-chloropyridin-4-yl)amino)-4-((1-cyclopropylethyl)amino)-1-methylquinolin-2(1H)-one]: the “HTRF pIC50” value in test [1] (setting [3]) was 6.42. Further, the IC50 in test [2] was 1780 nM.

Take `C[C@@H](CO)Nc1cc(=O)n(C)c2ccc(Nc3ccnc(Cl)c3C#N)cc12` [Example 3g, (S)-2-Chloro-4-((4-((1-hydroxypropan-2-yl)amino)-1-methyl-2-oxo-1,2-dihydroquinolin-6-yl)amino)nicotinonitrile]: the “HTRF pIC50” value is reported as 6.39 in test [1] (setting [3]) and 6.43 in test [1] (setting [4]). Also, the IC50 in test [2] was 20900 nM.

Take `CC(Nc1cc(=O)n(C)c2ccc(Nc3ccnc(Cl)c3C#N)cc12)c1ncc(N2CCOCC2)cn1` (stereo not shown) [Example 10x, 2-chloro-4-((1-methyl-4-((1-(5-morpholinopyrimidin-2-yl)ethyl)amino)-2-oxo-1,2-dihydroquinolin-6-yl)amino)nicotinonitrile]: the “HTRF pIC50” value in test [1] (setting [3]) came to 7.56. Moreover, in test [2], the IC50 was 1260 nM.

Consider `CC(Nc1cc(=O)n(C)c2ccc(Nc3cc(C(=O)N(C)C)nc(Cl)c3C#N)cc12)c1ncccn1` (stereo not shown) [Example 19b], for which the “HTRF pIC50” value in test [1] (setting [3]) stood at 6.99. Further, the IC50 in test [2] was 5250 nM.

Turning to `CC(=O)N(C)c1cc(Nc2ccc3c(c2)c(NC(C)c2ncccn2)cc(=O)n3C)c(Cl)cn1` (stereo not shown) [Example 21, N-(5-Chloro-4-((1-methyl-2-oxo-4-((1-(pyrimidin-2-yl)ethyl)amino)-1,2-dihydroquinolin-6-yl)amino)pyridin-2-yl)-N-methylacetamide], the “HTRF pIC50” value in test [1] (setting [3]) was determined as 6.33. In addition, the IC50 in test [2] was 6760 nM.

For `CNC(=O)c1cc(Nc2ccc3c(c2)c(N[C@H](C)C2CC2)cc(=O)n3C)c(C#N)c(Cl)n1` [Example 10i, (R)-6-chloro-5-cyano-4-((4-((1-cyclopropylethyl)amino)-1-methyl-2-oxo-1,2-dihydroquinolin-6-yl)amino)-N-methylpicolinamide], the “HTRF pIC50” value in test [1] (setting [3]) is 6.96. Besides, in test [2], the IC50 was 1780 nM.

As for `C[C@@H](Nc1cc(=O)n(C)c2ccc(Nc3ccnc(Cl)c3C#N)cc12)C1CC1` [Example 10n, (R)-2-chloro-4-((4-((1-cyclopropylethyl)amino)-1-methyl-2-oxo-1,2-dihydroquinolin-6-yl)amino)nicotinonitrile], the “HTRF pIC50” value in test [1] (setting [3]) amounted to 6.55. In addition, the IC50 in test [2] is 1290 nM.

On to `Cc1nc(-n2ccc(C(F)(F)F)n2)nc(Nc2ccc3c(c2)c(NC(C)(C)c2ncccn2)cc(=O)n3C)c1Cl` [Example 14a, 6-((5-chloro-6-methyl-2-(3-(trifluoromethyl)-1H-pyrazol-1-yl)pyrimidin-4-yl)amino)-1-methyl-4-((2-(pyrimidin-2-yl)propan-2-yl)amino)quinolin-2(1H)-one], for which, in test [1] (setting [3]), the “HTRF pIC50” value came to 6.66. Further, the IC50 in test [2] was 3890 nM.

On to `CC(Nc1cc(=O)n(C)c2ccc(Nc3nc(N4CCC(C(=O)N(C)C)CC4)ncc3Cl)cc12)c1ncccn1` (stereo not shown) [Example 17c, 1-(5-chloro-4-((-methyl-2-oxo-4-((1-(pyrimidin-2yl)ethyl)amino)-1,2-dihydroquinolin-6-yl)amino)pyrimidin-2-yl)-N,N-dimethylpiperidine-4-carboxamide], for which the IC50 was 339 nM in test [1] (setting [3]) and 3720 nM in test [2].

As to `CNC(=O)c1cc(Nc2ccc3c(c2)c(NC(C)C2CC2)cc(=O)n3C)c(C#N)c(Cl)n1` (stereo not shown) [Example 7b, 6-chloro-5-cyano-4-((4-((1-cyclopropylethyl)amino)-1-methyl-2-oxo-1,2-dihydroquinolin-6-yl)amino)-N-methylpicolinamide], the IC50 was 288 nM in test [1] (setting [3]) and 1120 nM in test [2].

With `Cn1c(=O)cc(NC(C)(C)c2ncc(C3CC3)cn2)c2cc(Nc3cc(C(=O)N4CCC4)nc(Cl)c3C#N)ccc21` [Example 8b, 6-(azetidine-1-carbonyl)-2-chloro-4-((4-((2-(5-cyclopropylpyrimidin-2-yl)propan-2-yl)amino)-1-methyl-2-oxo-1,2-dihydroquinolin-6-yl)amino)nicotinonitrile], in test [1] (setting [3]), the “HTRF pIC50” value was determined as 7.86. Further, the IC50 in test [2] is 741 nM.

Turning to `COc1cc(Nc2nc(N3CCC(C(=O)N(C)C)CC3)ncc2Cl)cc2c(NC(C)(C)c3ncccn3)cc(=O)n(C)c12` [Example 12c], the IC50 in test [1] (setting [3]) was 525 nM; in test [2] it was 3310 nM.

As to `CC(Nc1nc(=O)n(C)c2ccc(Nc3nc(N4CCC(C(=O)N(C)C)CC4)ncc3Cl)cc12)c1ncccn1` (stereo not shown) [Example 12d, 1-(5-chloro-4-((1-methyl-2-oxo-4((1-(pyrimidin-2-yl)ethyl)amino)-1,2-dihydroquinazolin-6-yl)amino)pyrimidin-2-yl)-N,N-dimethylpiperidine-4-carboxamide], the “HTRF pIC50” value in test [1] (setting [3]) is 6.78. In addition, the IC50 in test [2] was 11200 nM.
